According to patent US20250161312A1, “A METHOD FOR THE TREATMENT OF CHEMOTHERAPEUTIC DRUG-INDUCED NEPHROTOXICITY” (INSTITUT NATIONAL DE LA SANTÉ ET DE LA RECHERCHE MÉDICALE, priority 2022, published 2025):

Legend:
[1] = target: T1, A1 receptor (Rattus norvegicus, UniProt P25099); conditions: rodent models, blockade of A1 receptor; cited from earlier work
T1 construct: host or cells: rodent (rat) in vivo models
T1 sequence (P25099 1-326): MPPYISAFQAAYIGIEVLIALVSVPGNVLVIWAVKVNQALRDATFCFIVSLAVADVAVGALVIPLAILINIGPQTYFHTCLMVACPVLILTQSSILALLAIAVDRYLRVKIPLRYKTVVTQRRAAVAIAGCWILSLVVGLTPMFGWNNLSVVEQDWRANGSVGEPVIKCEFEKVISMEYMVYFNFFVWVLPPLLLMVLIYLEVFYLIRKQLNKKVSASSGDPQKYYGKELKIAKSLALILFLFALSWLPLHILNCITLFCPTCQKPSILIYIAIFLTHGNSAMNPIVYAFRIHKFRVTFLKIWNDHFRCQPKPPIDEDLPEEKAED

[2] = system: mouse model; assay: MSX-3 in cisplatin-induced kidney injury mouse model; assay type: in vivo; conditions: vs. cisplatin
Description: FIG. 9. […] (A) BUN quantification. (B) Gene expression of the inflammatory marker Tnfa.

[3] = system: kidney transcriptome; assay: RNA-Seq of kidney, sub-chronic protocol; assay type: in vivo, mice; conditions: adjusted p-value<0.01, log 2 fold change±1
Protocol: RNA-seq libraries (n=5-6/group) were generated from 500 ng of total RNA using Illumina® TruSeq® Stranded mRNA Library Prep Kit v2. Briefly, following purification with poly-T oligo attached magnetic beads, the mRNA was fragmented using divalent cations at 94° C. for 2 min. The cleaved RNA fragments were copied into first-strand cDNA using reverse transcriptase and random primers. Strand specificity was achieved by replacing dTTP with dUTP during the second-strand cDNA synthesis by DNA polymerase I and RNase H. Following the addition of a single “A” base and the subsequent ligation of the adapter on double-stranded cDNA fragments, the products were purified and enriched with PCR [30 s at 98° C.; (10 s at 98° C., 30 s at 60° C., 30 s at 72° C.)×12 cycles; 5 min at 72° C.] to create the cDNA library. Surplus PCR primers were further removed by purification using AMPure XP beads (Beckman Coulter), and the final cDNA libraries were checked for quality and quantified using capillary electrophoresis. Sequencing was performed on the Illumina® Genome Hiseq4000 as single-end 50 base reads following Illumina's instructions. Reads were mapped onto the mm 10 assembly of Mus musculus genome using STAR v2.5.3a (72). Only uniquely aligned reads were kept for further analyses. Quantification of gene expression was performed using HTSeq-count v0.6.1p1 (73) and gene annotations from Ensembl releases 90 and 102 and “union” mode. Read counts were normalized across libraries with the method proposed by Ander et al. (74). Comparisons of interest were performed using the test for differential expression proposed by Love et al. (75) and implemented in the DESeq2 Bioconductor library (v1.16.1). Resulting p-values were adjusted for multiple testing using the Benjamini and Hochberg method (76). RNA-sequencing was performed by Plateforme GenomEast, Institut de Génétique et de Biologie Moléculaire et Cellulaire, UMR 7104 CNRS-UdS/INSERM U964 (Illkirch, France). Sequencing data that support the findings of this study have been deposited in GEO with the primary accession code GSE179247. […]

[4] = system: C57BL6/J mice; assay: Sub-chronic cisplatin-induced kidney injury model; assay type: in vivo; conditions: cisplatin 3 mg/kg for six days
Protocol: FIG. 1. Schematic representation of the different animal procedures. (A) Acute cisplatin-induced kidney injury. […] (B) Sub-chronic cisplatin-induced kidney injury. […] (C) KW-6002 administration schedule in the acute model. […] (D) KW-6002 administration schedule in the sub-chronic model.
Animal experiments were adapted from 63-64. Animal procedures were performed in 8 to 10 weeks old male C57B16/J mice (Janvier Labs). Mice were fed a laboratory standard diet with water and food ad libitum and were kept under constant environmental conditions with a 12-hour light-dark cycle. Istradefylline (KW-6002; Tocris) was dissolved in a carrier solution consisting in 15% DMSO, 15% cremophor (Sigma), 70% saline solution (vehicle). Cisplatin (Accord Healthcare) was dissolved in saline solution. […] Three days after this single injection, animals were sacrificed by cervical dislocation (FIG. 1A).
Prior sacrifice by cervical dislocation, retro-orbital blood samples were collected in heparinized tubes and centrifuged for 10 min at 2000 rpm at room temperature. Renal function was assessed by Blood urea nitrogen (BUN) measurement using a AU480 Chemistry Analyzer (Beckman Coulter). At the time of sacrifice, kidneys or LLC1 tumors were harvested and stored in either “RNA later” solution (Thermo Fisher), 4% neutral buffered formalin or snap-frozen in liquid nitrogen.
Formalin-fixed and paraffin-embedded sections (3 μm thick) were stained with Hematoxylin and Eosin (Sigma Aldrich) or Periodic Acid-Schiff (Sigma-Aldrich). Slices were scored by a nephropathologist in a blinded manner. A kidney injury score grading scale from 0 to 5 was used to assess the severity of the injury as follow: 0=no lesions, 1=minimal injury characterized by occurrence of necrosis and debris; 2=mild injury with single cell necrosis, pyknotic cells, and apoptosis; 3=moderate injury characterized by tubular distension, vacuolation, and some cellular debris, 4=severe injury with occasional hyaline casts observed, patchy epithelial necrosis in all segments, loss of epithelial lining; and 5=very severe injury characterized by extensive tubular epithelial necrosis in all segments, loss of epithelial layer from many tubules widespread intraluminal cellular debris, and frequent hyaline casts particularly prominent in the medullary region (67).
Total RNA from kidney samples was extracted with phenol/chloroform and subsequently precipitated in isopropanol as described previously (71). Total RNA from cultured renal cells was extracted using RNeasy Mini kit (Qiagen) following manufacturer's recommendations.
Reverse transcription was performed on 1 μg of RNA using high-capacity cDNA reverse transcription kit (Thermo Fisher), according the manufacturer's recommendation. Real time PCR was performed on a StepOne device using Taqman Gene Expression Master Mix (Thermo Fisher), following manufacturer's recommendations. […]

[5] = system: kidney mouse sections; assay: Red Oil staining of kidney mouse sections; assay type: in vivo; conditions: cisplatin alone
Protocol: FIG. 6. KW6002 alleviates the cisplatin-induced nephrotoxicity associated with apoptosis, lipid metabolism, and oxidative stress. (A) Tail moment assessed by comet assay; 50 cells/condition were analyzed. (B and C) KW6002 attenuates cisplatin-induced renal lipid accumulation, assessed by Red Oil staining. […] Results are the mean±SEM (n=6-9 mice/group). (F-H) KW6002 attenuated cisplatin-induced oxidative stress in RPTEC/hTERT1 cells. (F and G) Gene expression of Nrf2 (F) and HO1 (G). […] Results are the mean±SEM (n=3 independent experiments).
10 μm frozen kidney mouse sections were fixed with ethanol (60%) then incubated for 15 min with Oil Red O Solution (Fisher Biotech) dissolved in isopropanol. After several washes with ddH2O, samples were incubated 3 min with hematoxylin. Lipid droplets are stained in red whereas nuclei appeared blue. […] RPTEC/hTERT cells were fixed with ethanol (60%) then incubated for 15 min with Oil Red O Solution. The cells were washed three times with ddH2O and incubated 3 min with hematoxylin. Coverslips were rinsed with H2O before mounting on microscope slides using glycerol gelatin aqueous slide mounting medium (Sigma). Quantifications were performed blindly using ImageJ software. […] The resulting red color images were quantified using a custom threshold (0.173 for RPTEC/hTERT cells and 0.140 for kidney stainings).

[6] = both in vitro and in vivo; cited from earlier work

Q: Which “protection against cisplatin nephrotoxicity” value (from here on “protection”) [1] does the source give for `CCCn1c(=O)c2[nH]c(C3CCCC3)nc2n(CCC)c1=O` [8-cyclopentyl-1,3-dipropylxanthine] here?
A: protective against cisplatin nephrotoxicity

Q: Which “protection” value [1] does the source give for `CCCn1c(=O)c2[nH]c(C34CC5CC(CC3C5)C4)nc2n(CCC)c1=O` [KW-3902] here?
A: protective against cisplatin nephrotoxicity

Q: What does the source list for `C#CCn1c(=O)c2c(nc(/C=C/c3cccc(OC)c3)n2C)n(CCCOP(=O)([O-])[O-])c1=O.[Na+].[Na+]` [MSX-3]?
A: BUN ([2]; FIG. 9A): significant reduction of BUN; mRNA levels of Tnfα ([2]; FIG. 9B): lower mRNA levels of Tnfα

Q: For `N.N.[Cl][Pt][Cl]` [cisplatin, cis-diamminedichloroplatinum (II)], which “genes downregulated in kidney” value [3] is on record?
A: 2299 genes

Q: What about the “genes upregulated in kidney” value [3] of the same compound?
A: 2350 genes

Q: What about the “genes whose expression is impacted in kidney” value [3] of the same compound?
A: 4649 genes

Q: What about the histological lesions [4] of the same compound?
A: severe histological lesions

Q: And the “mRNA expression of Il6” value [4]?
A: increased mRNA expression

Q: What about the “mRNA expression of Tnf” value [4] of the same compound?
A: increased mRNA expression

Q: What about the “mRNA levels of KIM-1” value [4] of the same compound?
A: significantly increased

Q: What about the “mRNA levels of NGAL” value [4] of the same compound?
A: significantly increased

Q: And the “blood urea nitrogen (BUN) levels” value ([4]; data not shown)?
A: increased blood urea nitrogen (BUN) levels

Q: What about the “lipid droplets in kidney” value [5] of the same compound?
A: induced an accumulation of lipid droplets

Q: With `CCCn1c(=O)c2nc(C34CCC(CCC(=O)O)(CC3)CC4)[nH]c2n(CCC)c1=O` [tonapofylline] as the compound, how does the “protection” value [1] read?
A: protective against cisplatin nephrotoxicity

Q: With `Cn1c(=O)c2c(ncn2C)n(C)c1=O` [caffeine] as the compound, how does the “anti-tumoral effect of cisplatin” value [6] read?
A: potentiate the anti-tumoral effect of cisplatin
